How the values were obtained:
CDK6/CyclinD1 = biological target: T1, CDK6/CyclinD1 (Homo sapiens, UniProt Q00534); experiment: In vitro cell-free CDK6/CyclinD1 kinase activity assay (TR-FRET); assay type: biochemical; conditions: ATP at Km
T1 construct: purchased Carna 04-114
Description: It should be noted that the assay can also be conducted by a similar method. The assay steps in this Test Example are as follows:
The CDK6/CyclinD1 kinase activity was determined using a time-resolved fluorescence resonance energy transfer (TR-FRET) method. Measurements were performed in a reaction volume of 20 μL using 384-well assay plates. […] The reaction was stopped by adding a mixture of a peptide antibody (trade name: Cisbio, product No. 64CUSKAY) and Sa-XL665 (trade name: Cisbio, product No. 610SAXLB) diluted in HTRF KinEASE detection buffer (trade name: Cisbio, product No. 62SDBRDF, containing EDTA). After the mixture was incubated for 1 hour at room temperature, the plate was read. The TR-FRET signal was measured on a multimode plate reader (EnVision™, a multi-function microplate detector, PerkinElmer) at an excitation wavelength (λEx) of 330 nm and detection wavelengths (λEm) of 615 and 665 nm. The activity was determined by the ratio of fluorescence at 665 nm to that at 615 nm. For each compound, the enzyme activities of different concentrations of the compound were measured to determine IC50. The negative control contained no inhibitor. Two no-enzyme controls were used to determine baseline fluorescence levels. IC50 was obtained by fitting using the GraphPad 6.02 software.
8-10 concentrations were prepared for each compound, and formulated in DMSO. The stock concentration was 200× the working concentration. For example, if the working concentration was 100 nM, the corresponding concentration of the formulated stock solution was 20 μM.
In the analysis of in vitro inhibitory activity on CDK kinase, the IC50 value of each of the Example compounds and Reference Example compounds was determined.

MCF-7 cells = experiment: Cell viability assay, MCF-7 cells (CellTiter-Glo, 168 h); assay type: cell-based; conditions: Homo sapiens, MCF7
Description: An in vitro cell viability assay was conducted using some Example compounds following the steps below:
1. After recovery, MCF-7 cells (obtained from the Shanghai Cell Bank of the Chinese Academy of Sciences) were cultured at 37° C., 5% CO2, and 95% humidity.
2. 8 compound solutions at different concentrations were prepared for each Example compound. 50 μL of the compound solution at each concentration was added to a 96-well black plate.
3. The cell concentration was adjusted to about 30,000 cells/mL. 100 μL of the cell suspension was added to the 96-well plate, and mixed well to a final cell density of about 3,000 cells/well.
4. The 96-well plate was incubated at 37° C., 5% CO2, and 95% humidity for 168 h, i.e., 7 days.
5. The cell survival rate was measured by the method of CellTiter-Glo® Luminescent Cell Viability Assay (Promega, Cat #G7572). The fluorescence data were read on a microplate reader (EnVision™, a multi-function microplate detector, PerkinElmer).
6. The obtained fluorescence data were analyzed using the GraphPad Prism software. The cell survival rate was calculated for each Example compound at each concentration, and the IC50 interval of each Example compound was determined.

T1 sequence (Q00534 whole entry): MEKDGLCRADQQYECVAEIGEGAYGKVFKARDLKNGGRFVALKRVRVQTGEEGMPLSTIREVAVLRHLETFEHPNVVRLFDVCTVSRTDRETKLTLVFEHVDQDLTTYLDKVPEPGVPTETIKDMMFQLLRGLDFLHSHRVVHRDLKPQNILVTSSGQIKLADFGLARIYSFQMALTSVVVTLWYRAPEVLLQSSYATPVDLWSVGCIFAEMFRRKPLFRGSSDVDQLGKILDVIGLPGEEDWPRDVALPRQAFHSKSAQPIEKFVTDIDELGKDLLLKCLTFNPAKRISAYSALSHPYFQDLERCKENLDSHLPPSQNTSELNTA
T1 sequence (P24385 whole entry partner): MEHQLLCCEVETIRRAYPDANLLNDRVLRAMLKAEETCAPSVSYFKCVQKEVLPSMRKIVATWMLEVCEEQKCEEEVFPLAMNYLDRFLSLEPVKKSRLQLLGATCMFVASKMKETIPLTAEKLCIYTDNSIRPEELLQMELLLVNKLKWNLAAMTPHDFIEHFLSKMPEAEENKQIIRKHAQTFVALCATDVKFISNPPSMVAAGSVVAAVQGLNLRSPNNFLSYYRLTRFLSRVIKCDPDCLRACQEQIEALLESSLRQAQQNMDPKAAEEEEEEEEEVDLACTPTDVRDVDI

| IC50 (CDK6/CyclinD1) | IC50 (MCF-7 cells) | SMILES |
| --- | --- | --- |
| < 100 nM | < 500 nM | CN(C)C(=O)c1cc2cnc(Nc3ccc(N4CCN(C5CC5)CC4)cn3)nn2c1C1=CCCC1 [Example 109] |
| < 100 nM | < 500 nM | Cc1cc(-c2cc3cnc(Nc4ccc(N5CCN(C)CC5)cn4)nn3c2C2=CCCC2)ccn1 [Example 110] |
| < 100 nM | < 500 nM | C1=C(c2c(-c3cnco3)cc3cnc(Nc4ccc(N5CCNCC5)cn4)nn23)CCC1 [Example 111] |
| < 100 nM | < 500 nM | [2H]C([2H])([2H])N(C(=O)c1cc2cnc(Nc3ccc(N4CCNCC4)cn3)nn2c1C1=CCCC1)C([2H])([2H])[2H] [Example 112] |
| < 100 nM | < 500 nM | [2H]C([2H])([2H])N(C(=O)c1cc2cnc(Nc3ccc(N4CCN(C)CC4)cn3)nn2c1C1=CCCC1)C([2H])([2H])[2H] [Example 113] |
| < 100 nM | < 500 nM | [2H]C([2H])([2H])N1CCN(c2ccc(Nc3ncc4cc(C(=O)N(C([2H])([2H])[2H])C([2H])([2H])[2H])c(C5=CCCC5)n4n3)nc2)CC1 [Example 114] |
| < 100 nM | < 500 nM | [2H]C([2H])([2H])N(C(=O)c1cc2cnc(Nc3ccc(N4CCN(C([2H])([2H])C([2H])([2H])[2H])CC4)cn3)nn2c1C1=CCCC1)C([2H])([2H])[2H] [Example 115] |
| < 100 nM | < 500 nM | [2H]C([2H])([2H])N(C(=O)c1cc2cnc(Nc3ccc(N4CCNCC4)cn3)nn2c1-c1ccccc1)C([2H])([2H])[2H] [Example 116] |
| < 100 nM | < 500 nM | [2H]C([2H])([2H])N(C(=O)c1cc2cnc(Nc3ccc(N4CCNCC4)cn3)nn2c1-c1ccc(OC)cc1)C([2H])([2H])[2H] [Example 117] |
| < 100 nM | < 500 nM | [2H]C([2H])([2H])N(C(=O)c1cc2cnc(Nc3ccc(N4CCN(CC)CC4)cn3)nn2c1C1=CCCC1)C([2H])([2H])[2H] [Example 118] |
| < 100 nM | < 500 nM | [2H]C([2H])([2H])N(C(=O)c1cc2cnc(Nc3ccc(N4CCN(C)CC4)cn3)nn2c1C1=CCOCC1)C([2H])([2H])[2H] [Example 119] |
| < 100 nM | < 500 nM | [2H]C([2H])([2H])N(C(=O)c1cc2cnc(Nc3ccc(N4CCN(C)CC4)cn3)nn2c1-c1ccccc1)C([2H])([2H])[2H] [Example 120] |
| < 100 nM | < 500 nM | [2H]C([2H])([2H])N(C(=O)c1cc2cnc(Nc3ccc(N4CCN(C)CC4)cn3)nn2c1-c1ccc(OC)cc1)C([2H])([2H])[2H] [Example 121] |
| < 100 nM | < 500 nM | [2H]C([2H])([2H])N(C(=O)c1cc2cnc(Nc3ccc(N4CCNCC4)cn3)nn2c1C1=CCOCC1)C([2H])([2H])[2H] [Example 122] |
| < 100 nM | < 500 nM | [2H]C([2H])([2H])N1CCN(c2ccc(Nc3ncc4cc(C(=O)N(C([2H])([2H])[2H])C([2H])([2H])[2H])c(-c5ccccc5)n4n3)nc2)CC1 [Example 123] |
| < 100 nM | < 500 nM | [2H]C([2H])([2H])N1CCN(c2ccc(Nc3ncc4cc(C(=O)N(C([2H])([2H])[2H])C([2H])([2H])[2H])c(-c5ccc(OC)cc5)n4n3)nc2)CC1 [Example 124] |
| < 100 nM | < 500 nM | [2H]C([2H])([2H])N1CCN(c2ccc(Nc3ncc4cc(C(=O)N(C([2H])([2H])[2H])C([2H])([2H])[2H])c(-c5ccc(F)cc5)n4n3)nc2)CC1 [Example 125] |
| < 100 nM | < 500 nM | [2H]C([2H])([2H])N1CCN(c2ccc(Nc3ncc4cc(-c5cnn(C)c5)c(C5=CCCC5)n4n3)nc2)CC1 [Example 126] |
| < 100 nM | < 500 nM | [2H]C([2H])([2H])N1CCN(c2ccc(Nc3ncc4cc(C(=O)N(C([2H])([2H])[2H])C([2H])([2H])[2H])c(-c5ccc(Cl)cc5)n4n3)nc2)CC1 [Example 127] |
| 1000 to 3000 nM | > 10000 nM | CP(C)(=O)c1ccc(Nc2ncc3cc(C#N)c(Br)n3n2)cc1 [Reference Example 128, reference compound] |
| > 3000 nM | > 10000 nM | Cc1noc(C)c1-c1c(-c2cnn(C)c2)c(-c2c(C)noc2C)n2nc(Nc3ccc(N4CCNCC4)cn3)ncc12 [Reference Example 131, reference compound] |
| > 3000 nM | > 10000 nM | COC(=O)c1cc2cnc(Nc3ccc(N4CCNCC4)cn3)nn2c1-c1cccc2cccnc12 [Reference Example 132, reference compound] |
| > 3000 nM | > 10000 nM | COC(=O)c1cc2cnc(Nc3ccc(N4CC5(CNC5)C4)cn3)nn2c1-c1cccc2cccnc12 [Reference Example 133, reference compound] |
| 1000 to 3000 nM | > 10000 nM | Cc1noc(C)c1-c1c(C(=O)N(C)C)cc2cnc(Nc3ccc(N4CC5(CCNC5)C4)cn3)nn12 [Reference Example 134, reference compound] |

Reference: US20230002393A1, “CDK KINASE INHIBITOR” (BEIJING BENICALL BIOTECH CO., LTD., priority 2019, published 2023)
